Data reported in ChEMBL document CHEMBL1201862, “PubChem BioAssay data set” (2004).
Active and inactive are the calls of the source.

Experiments:
[1] = molecular target: Peroxisome proliferator-activated receptor gamma/Nuclear receptor corepressor 2 (Homo sapiens, UniProt P37231+Q9Y618); format: functional
[2] = molecular target: Photoreceptor-specific nuclear receptor (Homo sapiens, UniProt Q9Y5X4); format: functional;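 note: potency for compounds that break the NR2E3 corepressor complex and count as activators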
Sequence of Photoreceptor-specific nuclear receptor (Q9Y5X4 whole entry): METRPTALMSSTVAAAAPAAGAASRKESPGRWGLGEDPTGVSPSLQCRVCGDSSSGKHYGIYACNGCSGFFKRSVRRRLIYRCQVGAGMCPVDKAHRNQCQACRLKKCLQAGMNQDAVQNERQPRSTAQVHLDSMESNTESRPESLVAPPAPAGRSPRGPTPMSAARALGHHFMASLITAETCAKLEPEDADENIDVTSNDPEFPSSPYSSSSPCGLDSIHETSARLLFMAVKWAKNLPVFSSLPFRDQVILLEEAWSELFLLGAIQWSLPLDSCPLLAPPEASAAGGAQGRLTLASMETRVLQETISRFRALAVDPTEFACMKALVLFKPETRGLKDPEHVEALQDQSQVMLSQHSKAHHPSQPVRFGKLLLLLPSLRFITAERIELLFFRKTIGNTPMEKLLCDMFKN

[3] = A cytotoxicity screen of small molecule inhibitors of the PhoP region in Salmonella typhi identified in the primary screen. [Related pubchem assays: 1850, 1864, 1985 ]; format: functional
[4] = molecular target: T1, Ubiquitin-conjugating enzyme E2 N (Homo sapiens, UniProt P61088); format: functional;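 note: Dose-response confirmation in a TR-FRET assay detecting UBC13-driven polyubiquitin chain formation, inhibition measured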
T1 sequence (P61088 whole entry): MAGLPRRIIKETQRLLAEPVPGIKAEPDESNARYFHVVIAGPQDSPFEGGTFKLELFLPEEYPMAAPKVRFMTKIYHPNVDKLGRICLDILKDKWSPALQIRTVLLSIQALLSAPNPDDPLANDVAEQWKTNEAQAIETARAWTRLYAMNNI

[5] = molecular target: Voltage-dependent T-type calcium channel subunit alpha-1H (Homo sapiens, UniProt O95180); format: functional;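 note: channel activity triggered by adding a high calcium stimulation buffer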
Sequence of Voltage-dependent T-type calcium channel subunit alpha-1H (O95180 whole entry): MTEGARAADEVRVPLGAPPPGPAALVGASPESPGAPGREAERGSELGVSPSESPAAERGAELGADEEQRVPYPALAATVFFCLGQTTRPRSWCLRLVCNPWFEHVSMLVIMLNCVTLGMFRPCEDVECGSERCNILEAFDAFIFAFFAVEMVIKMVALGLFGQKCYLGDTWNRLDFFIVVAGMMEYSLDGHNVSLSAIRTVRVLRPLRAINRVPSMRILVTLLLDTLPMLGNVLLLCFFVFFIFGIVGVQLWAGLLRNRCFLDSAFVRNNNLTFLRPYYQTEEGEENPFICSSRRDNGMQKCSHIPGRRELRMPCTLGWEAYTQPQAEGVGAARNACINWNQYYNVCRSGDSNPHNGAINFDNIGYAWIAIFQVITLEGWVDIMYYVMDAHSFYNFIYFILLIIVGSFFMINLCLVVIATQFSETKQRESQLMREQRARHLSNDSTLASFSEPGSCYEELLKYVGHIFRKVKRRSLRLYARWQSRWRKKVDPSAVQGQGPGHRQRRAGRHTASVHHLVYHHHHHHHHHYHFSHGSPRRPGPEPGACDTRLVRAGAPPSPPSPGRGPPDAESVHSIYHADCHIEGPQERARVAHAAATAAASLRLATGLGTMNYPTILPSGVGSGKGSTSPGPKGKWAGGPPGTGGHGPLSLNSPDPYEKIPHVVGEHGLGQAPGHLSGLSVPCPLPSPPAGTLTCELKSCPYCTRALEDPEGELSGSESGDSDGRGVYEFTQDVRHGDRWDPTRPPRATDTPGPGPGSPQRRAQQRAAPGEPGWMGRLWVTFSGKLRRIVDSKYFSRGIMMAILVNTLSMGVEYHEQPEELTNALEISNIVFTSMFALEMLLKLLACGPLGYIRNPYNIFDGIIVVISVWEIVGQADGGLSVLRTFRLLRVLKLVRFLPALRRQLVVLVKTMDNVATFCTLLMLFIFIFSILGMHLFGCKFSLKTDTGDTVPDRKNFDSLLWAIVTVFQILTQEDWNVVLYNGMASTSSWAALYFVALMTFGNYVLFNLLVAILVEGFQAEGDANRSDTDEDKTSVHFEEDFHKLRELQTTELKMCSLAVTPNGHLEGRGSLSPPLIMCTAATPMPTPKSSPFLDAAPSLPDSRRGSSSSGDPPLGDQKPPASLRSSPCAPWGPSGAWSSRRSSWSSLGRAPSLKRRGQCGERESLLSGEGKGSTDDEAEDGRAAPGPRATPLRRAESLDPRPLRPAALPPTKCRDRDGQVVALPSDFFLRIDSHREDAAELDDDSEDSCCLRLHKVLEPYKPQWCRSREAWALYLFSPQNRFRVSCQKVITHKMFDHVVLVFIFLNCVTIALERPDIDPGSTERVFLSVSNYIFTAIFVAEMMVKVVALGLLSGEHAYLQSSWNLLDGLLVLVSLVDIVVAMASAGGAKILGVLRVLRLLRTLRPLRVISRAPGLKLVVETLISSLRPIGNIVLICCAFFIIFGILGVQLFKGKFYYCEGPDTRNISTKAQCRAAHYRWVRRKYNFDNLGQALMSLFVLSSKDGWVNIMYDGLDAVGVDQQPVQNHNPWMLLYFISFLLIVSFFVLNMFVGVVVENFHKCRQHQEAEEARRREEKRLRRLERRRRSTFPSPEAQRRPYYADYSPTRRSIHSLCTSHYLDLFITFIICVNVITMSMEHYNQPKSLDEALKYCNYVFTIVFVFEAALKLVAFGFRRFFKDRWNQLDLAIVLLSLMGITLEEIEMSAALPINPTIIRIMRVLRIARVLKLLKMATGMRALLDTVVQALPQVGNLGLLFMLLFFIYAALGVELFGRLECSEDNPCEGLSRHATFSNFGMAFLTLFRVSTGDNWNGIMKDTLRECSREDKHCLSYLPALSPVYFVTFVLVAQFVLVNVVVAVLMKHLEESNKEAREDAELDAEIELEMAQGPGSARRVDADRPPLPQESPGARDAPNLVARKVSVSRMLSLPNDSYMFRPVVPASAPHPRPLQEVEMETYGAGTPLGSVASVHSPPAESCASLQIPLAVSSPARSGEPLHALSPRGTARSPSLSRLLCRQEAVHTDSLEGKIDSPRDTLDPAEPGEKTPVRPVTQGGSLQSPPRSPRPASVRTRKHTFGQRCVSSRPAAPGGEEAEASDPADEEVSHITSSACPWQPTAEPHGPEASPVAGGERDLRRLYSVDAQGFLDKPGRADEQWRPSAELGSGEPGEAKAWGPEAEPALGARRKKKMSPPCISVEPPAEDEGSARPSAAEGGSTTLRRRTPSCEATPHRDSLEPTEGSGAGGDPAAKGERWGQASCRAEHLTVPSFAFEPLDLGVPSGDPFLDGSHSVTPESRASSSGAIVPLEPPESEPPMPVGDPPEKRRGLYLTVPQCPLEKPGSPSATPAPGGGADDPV

HeLa = assay: HeLa cell cytotoxicity, dose response, cytotoxicity control, 24 h, cherry-picked samples (AID 504726); format: functional, cell-based; details: Homo sapiens;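 note: potency for cytotoxicity as loss of luminescence signal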
[6] = test system: Streptococcus sp. 'group A'; assay: growth inhibition of control SK(-) GAS strain, dose response, counter-screen for streptokinase expression inhibitor project, luminescence, kanamycin, BacTiterGlo, confirmation (AID 1900); format: functional, organism-based
Streptokinase A = molecular target: T2, Streptokinase A (Streptococcus pyogenes serotype M1, UniProt P10520); assay: S. pyogenes streptokinase expression inhibitors, potency, dose response, plasminogen activation absorbance, OD405 (AID 1914); format: functional, Streptococcus pyogenes M1 GAS;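 note: secreted streptokinase activity via plasminogen activation per viability signal from cell pellet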
T2 sequence (P10520 whole entry): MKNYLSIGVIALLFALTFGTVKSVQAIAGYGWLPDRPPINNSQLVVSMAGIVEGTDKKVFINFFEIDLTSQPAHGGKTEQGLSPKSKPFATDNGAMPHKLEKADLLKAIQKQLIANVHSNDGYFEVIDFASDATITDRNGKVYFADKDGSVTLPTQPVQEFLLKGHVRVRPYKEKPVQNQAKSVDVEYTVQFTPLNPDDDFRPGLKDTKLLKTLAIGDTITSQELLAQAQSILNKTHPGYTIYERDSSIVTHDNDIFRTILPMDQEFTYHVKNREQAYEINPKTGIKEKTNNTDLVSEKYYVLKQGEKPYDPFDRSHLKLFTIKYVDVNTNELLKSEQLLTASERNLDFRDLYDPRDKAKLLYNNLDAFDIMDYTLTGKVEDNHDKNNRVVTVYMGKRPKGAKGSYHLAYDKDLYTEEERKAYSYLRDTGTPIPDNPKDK

Streptococcus = assay: Group A Streptococcus viability loss, dose response, counter-screen for streptokinase expression inhibitor project, luminescence, BacTiterGlo (AID 1915); format: functional, organism-based;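 note: potency for reduction of bacterial viability or growth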
[7] = Counterscreen for IDE inhibitors: Luminescence-based cell-based high throughput dose response assay to identify compounds that are cytotoxic to HEK cells. [Related pubchem assays: 434962 (Primary screen (IDE inhibitors in singlicate)), 449730 (Counterscreen (Cytotoxicity in triplicate)), 435028 (Confirmation (IDE inhibitors in triplicate)) …; format: functional; details: HEK293
Insulin-degrading enzyme = molecular target: T3, Insulin-degrading enzyme (Homo sapiens, UniProt P14735); assay: Dose Response: Fluorescence polarization-based cell-based high throughput dose response assay for inhibitors of insulin-degrading enzyme (IDE). [Related pubchem assays: 434962 (Primary screen (IDE inhibitors in singlicate)), 449730 (Counterscreen (Cytotoxicity in triplicate)), 435028 (Confirmation (IDE inhibitors in triplicate)), 434984 (Summary …; format: functional
T3 sequence (P14735 whole entry): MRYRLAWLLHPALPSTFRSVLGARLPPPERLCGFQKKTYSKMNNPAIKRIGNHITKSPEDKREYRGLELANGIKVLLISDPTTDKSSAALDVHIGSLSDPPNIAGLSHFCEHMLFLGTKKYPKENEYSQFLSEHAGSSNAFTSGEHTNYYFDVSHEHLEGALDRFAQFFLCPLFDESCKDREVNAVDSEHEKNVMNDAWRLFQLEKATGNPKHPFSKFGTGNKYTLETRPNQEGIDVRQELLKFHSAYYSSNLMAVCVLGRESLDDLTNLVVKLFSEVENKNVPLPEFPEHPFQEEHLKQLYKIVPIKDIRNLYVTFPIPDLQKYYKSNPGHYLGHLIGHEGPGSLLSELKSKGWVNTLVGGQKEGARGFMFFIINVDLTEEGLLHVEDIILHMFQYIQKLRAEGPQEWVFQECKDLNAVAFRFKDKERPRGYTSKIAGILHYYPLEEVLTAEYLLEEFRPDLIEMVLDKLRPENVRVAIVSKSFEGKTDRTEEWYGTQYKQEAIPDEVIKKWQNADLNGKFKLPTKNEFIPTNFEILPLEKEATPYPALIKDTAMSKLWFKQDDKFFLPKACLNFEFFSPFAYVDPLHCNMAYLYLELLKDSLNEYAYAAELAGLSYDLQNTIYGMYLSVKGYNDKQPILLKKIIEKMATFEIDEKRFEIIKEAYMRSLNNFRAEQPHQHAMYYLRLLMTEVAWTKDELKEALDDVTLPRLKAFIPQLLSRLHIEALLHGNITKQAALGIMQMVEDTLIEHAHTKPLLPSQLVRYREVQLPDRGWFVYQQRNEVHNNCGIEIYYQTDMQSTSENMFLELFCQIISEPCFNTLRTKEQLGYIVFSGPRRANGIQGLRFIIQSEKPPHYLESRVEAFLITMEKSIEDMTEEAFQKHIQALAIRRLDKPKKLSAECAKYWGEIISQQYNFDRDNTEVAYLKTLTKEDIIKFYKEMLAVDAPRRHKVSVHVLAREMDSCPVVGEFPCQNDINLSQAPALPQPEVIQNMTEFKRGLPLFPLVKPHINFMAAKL

Aspartyl aminopeptidase = molecular target: T4, Aspartyl aminopeptidase (Plasmodium falciparum 3D7, UniProt Q8I2J3)
T4 sequence (Q8I2J3 whole entry): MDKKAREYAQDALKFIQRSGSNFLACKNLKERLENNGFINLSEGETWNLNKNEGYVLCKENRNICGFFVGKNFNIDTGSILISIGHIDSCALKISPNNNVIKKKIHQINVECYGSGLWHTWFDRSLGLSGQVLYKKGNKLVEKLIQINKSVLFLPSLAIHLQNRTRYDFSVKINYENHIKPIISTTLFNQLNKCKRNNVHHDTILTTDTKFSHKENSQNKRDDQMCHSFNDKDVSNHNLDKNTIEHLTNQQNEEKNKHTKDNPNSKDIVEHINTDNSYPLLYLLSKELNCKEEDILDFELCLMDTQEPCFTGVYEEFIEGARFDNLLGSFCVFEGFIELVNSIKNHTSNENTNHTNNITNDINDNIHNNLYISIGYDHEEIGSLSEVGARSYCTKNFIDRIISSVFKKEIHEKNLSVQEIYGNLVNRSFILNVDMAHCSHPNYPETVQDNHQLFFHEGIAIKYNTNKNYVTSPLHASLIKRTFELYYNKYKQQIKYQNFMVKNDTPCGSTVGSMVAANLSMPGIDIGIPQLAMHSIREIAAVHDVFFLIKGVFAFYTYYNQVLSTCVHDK

Procathepsin L = Procathepsin L (Homo sapiens, UniProt P07711)
Sequence of Procathepsin L (P07711 whole entry): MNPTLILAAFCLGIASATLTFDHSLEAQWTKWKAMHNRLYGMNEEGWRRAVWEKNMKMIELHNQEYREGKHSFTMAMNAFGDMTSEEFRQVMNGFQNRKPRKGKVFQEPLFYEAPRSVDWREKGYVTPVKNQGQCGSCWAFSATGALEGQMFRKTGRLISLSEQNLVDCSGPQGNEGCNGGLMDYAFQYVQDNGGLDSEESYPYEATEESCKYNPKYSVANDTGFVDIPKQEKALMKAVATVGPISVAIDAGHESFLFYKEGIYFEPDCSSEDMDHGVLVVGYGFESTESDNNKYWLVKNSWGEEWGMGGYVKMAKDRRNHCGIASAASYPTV

[8] = molecular target: T5, Replicative DNA helicase DnaB (Mycobacterium tuberculosis, UniProt P9WMR3); assay: DnaB intein splicing inhibitors, dose response, biochemical, cell-free fluorescence (AID 449749); format: functional
T5 sequence (P9WMR3 whole entry): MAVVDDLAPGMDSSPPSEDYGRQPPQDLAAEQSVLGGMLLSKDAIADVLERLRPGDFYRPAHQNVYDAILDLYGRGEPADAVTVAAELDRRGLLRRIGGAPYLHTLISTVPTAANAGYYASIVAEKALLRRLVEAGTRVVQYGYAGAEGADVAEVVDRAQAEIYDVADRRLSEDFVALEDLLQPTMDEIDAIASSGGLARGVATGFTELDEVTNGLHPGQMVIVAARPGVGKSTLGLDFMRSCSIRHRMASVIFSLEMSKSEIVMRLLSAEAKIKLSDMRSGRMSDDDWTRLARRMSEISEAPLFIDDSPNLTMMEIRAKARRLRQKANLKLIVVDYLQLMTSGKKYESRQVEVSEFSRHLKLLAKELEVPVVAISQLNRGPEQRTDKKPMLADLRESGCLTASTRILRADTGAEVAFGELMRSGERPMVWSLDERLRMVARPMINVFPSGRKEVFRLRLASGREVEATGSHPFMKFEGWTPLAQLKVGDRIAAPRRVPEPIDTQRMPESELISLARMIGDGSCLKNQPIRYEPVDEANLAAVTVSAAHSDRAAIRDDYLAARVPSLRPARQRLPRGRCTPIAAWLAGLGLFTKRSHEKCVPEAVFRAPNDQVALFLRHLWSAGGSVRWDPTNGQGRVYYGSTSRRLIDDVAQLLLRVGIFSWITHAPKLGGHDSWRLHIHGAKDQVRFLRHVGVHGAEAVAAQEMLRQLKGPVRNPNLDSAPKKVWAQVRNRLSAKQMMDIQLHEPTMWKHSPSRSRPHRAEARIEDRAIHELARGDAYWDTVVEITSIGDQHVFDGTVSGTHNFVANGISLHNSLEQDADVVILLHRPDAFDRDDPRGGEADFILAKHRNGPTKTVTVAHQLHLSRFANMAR

[9] = molecular target: T6, Microphthalmia-associated transcription factor (Homo sapiens, UniProt O75030); assay: TRPM1 promoter luciferase signal decrease, dose response, MITF inhibitor project, cell-based, SK-MEL-5, cherry-picked, set 3 (AID 493073); format: functional
T6 sequence (O75030 whole entry): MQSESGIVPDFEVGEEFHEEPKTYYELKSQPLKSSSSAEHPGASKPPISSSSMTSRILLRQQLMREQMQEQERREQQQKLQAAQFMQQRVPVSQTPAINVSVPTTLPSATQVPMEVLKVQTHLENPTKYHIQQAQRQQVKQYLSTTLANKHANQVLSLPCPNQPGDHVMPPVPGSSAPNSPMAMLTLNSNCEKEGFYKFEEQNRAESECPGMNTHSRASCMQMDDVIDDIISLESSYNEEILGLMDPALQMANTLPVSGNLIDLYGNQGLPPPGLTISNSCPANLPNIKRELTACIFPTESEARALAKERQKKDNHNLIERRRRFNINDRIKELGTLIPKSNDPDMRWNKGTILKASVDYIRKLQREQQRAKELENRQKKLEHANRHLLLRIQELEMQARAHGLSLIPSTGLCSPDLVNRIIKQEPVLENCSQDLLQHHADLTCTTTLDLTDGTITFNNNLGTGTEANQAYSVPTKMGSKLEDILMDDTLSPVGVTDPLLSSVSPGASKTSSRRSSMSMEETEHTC

Protein RecA = molecular target: T7, Protein RecA (Mycobacterium tuberculosis, UniProt P9WHJ3); assay: Fluorescence Cell-Free Homogeneous Dose Retest to Identify Inhibitors of RecA-Intein Splicing Activity. [Related pubchem assays (depositor defined):AID2097, AID2223, AID489010, AID492950]; format: functional
T7 sequence (P9WHJ3 whole entry): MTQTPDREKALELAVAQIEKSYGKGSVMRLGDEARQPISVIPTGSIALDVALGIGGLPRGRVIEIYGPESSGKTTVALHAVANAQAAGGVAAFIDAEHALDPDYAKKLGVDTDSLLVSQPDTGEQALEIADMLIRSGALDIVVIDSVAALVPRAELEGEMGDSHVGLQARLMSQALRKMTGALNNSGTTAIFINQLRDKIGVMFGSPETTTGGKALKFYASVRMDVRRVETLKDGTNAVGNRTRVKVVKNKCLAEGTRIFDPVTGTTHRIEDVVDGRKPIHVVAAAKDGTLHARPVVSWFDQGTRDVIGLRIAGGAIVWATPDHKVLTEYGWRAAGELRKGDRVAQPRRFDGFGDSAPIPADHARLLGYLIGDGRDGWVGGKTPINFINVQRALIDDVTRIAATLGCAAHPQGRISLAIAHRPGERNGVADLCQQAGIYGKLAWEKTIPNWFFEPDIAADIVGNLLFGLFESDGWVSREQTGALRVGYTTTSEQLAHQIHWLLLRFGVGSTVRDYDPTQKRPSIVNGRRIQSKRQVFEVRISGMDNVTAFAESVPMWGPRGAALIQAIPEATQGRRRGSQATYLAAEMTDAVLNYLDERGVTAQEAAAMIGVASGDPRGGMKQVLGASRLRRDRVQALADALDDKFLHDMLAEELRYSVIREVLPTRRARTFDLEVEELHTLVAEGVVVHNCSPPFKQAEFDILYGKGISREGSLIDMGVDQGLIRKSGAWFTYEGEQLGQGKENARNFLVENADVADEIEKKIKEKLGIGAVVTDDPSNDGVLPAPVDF

CCOc1ccccc1NC(=O)CSc1nc(N)c(C#N)cc1C#N
IC50 [1]: 3.03 µM (active)
IC50 [2]: > 39.8 µM (not active)

COc1cc(C(=O)Nc2ccc3c(c2)OCCO3)ccc1OC(C)C
EC50 [3]: > 50 µM (active)

CN(Cc1ccccc1)C(=O)CCSc1nc(-c2ccc3c(c2)OCO3)cc(C(F)(F)F)n1
IC50 [4]: > 20 µM (inactive)
EC50 [5]: 4.53 µM (active)

O=C1c2ccccc2C(=O)N1Cc1ccc2c(c1)OCO2
AC50 (HeLa): 42.5 µM (active)

Cc1ccc(/C=C/C(=O)NC(=S)Nc2ccc(S(=O)(=O)Nc3cc(C)on3)cc2)cc1
EC50 [6]: 9.56 µM (active)
EC50 (Streptokinase A): 27.1 µM (inconclusive)
EC50 (Streptococcus): 62.4 µM (active)
IC50 [7]: > 55.7 µM (not active)
IC50 (Insulin-degrading enzyme): 9.71 µM (active)

O=C(Nc1ccc(S(=O)(=O)N2CCc3ccccc3C2)cc1)C1CCCO1 (configuration not stated)
EC50 [5]: 3.27 µM (active)

CCCCCC(=O)NC(=S)NNC(=O)CC
EC50 [3]: > 50 µM (active)

COc1ccc(NC(=O)NNC(=O)CCc2ccc(O)c(O)c2)cc1OC
IC50 (Aspartyl aminopeptidase): 2.51 µM (active)
IC50 (Procathepsin L): > 59.6 µM (not active)

CC1=NNC(=O)/C1=C\c1cn(-c2ccccc2)nc1-c1ccc(F)cc1
IC50 (Aspartyl aminopeptidase): 0.71 µM (active)
AC50 [8]: 3.69 µM (active)
IC50 (Procathepsin L): > 59.6 µM (not active)
AC50 [9]: 6.52 µM (active)
EC50 (Protein RecA): 1.35 µM (active)

Cc1cccc(N2CCN(C(=O)c3cccc(N4C(=O)C5C6C=CC(C6)C5C4=O)c3)CC2)c1C (configuration not stated)
IC50 [7]: 17.4 µM (not active)
IC50 (Insulin-degrading enzyme): 6.73 µM (active)
